The values that follow are results of earlier work, collected in publication PMC4838521 (ChemMedChem, 2015).

A word on the pKd: it is the Kd on a negative log10 scale, so that one unit is a factor of ten.

The target of the data set is YopH-NT (Yersinia pestis, UniProt O68720). The following applies: read-out: Kd for YopH-NT.

pKd: −log10 of the molar value.

Chain of YopH-NT (O68720 1-129 limits assumed): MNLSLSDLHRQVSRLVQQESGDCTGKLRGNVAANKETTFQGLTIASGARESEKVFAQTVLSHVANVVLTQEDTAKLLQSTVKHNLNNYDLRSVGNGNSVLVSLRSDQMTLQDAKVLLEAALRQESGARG

For cyclo-DE(pY)DDPfK, the pKd was ~4.82.
As to cyclo-DE(pY)LDPfK, the pKd is ~4.64.
